# Literature values in patent US20240408173A1, “SILK FIBROIN-CONTAINING COMPOSITION AND METHODS OF USE THEREOF” (Georgetown University, priority 2017, published 2024).
structure (smiles),measurement,value
"FC(F)(F)C(F)(F)C(F)(F)C(F)(F)C(F)(F)C(F)(F)C(F)(F)C(F)(F)Br [PFC, perfluorooctylbromide]",Water solubility,No
